Experimental data as given in patent US11458189B2, “Cytoprotective drugs” (BALMES TRANSPLANTATION, priority 2017, dated 2022).
Starred links: 1 amine or outer side, 2 acyl side, 3 side chain; linkers in the order of their positions; H or OH if unused. Positions of bridges follow the written chain, without caps; N, C: chain ends. Non-standard residues stand in square brackets, D forms with d. Residues, ends and D or L forms follow the SMILES beside them. *: point of attachment. hTyr(3S-OH,4S-OH,3'-OSO3H) = N[C@H](C(=O)O)[C@H](O)[C@@H](O)c1ccc(O)c(OS(=O)(=O)O)c1; Orn(4R-OH,5R-OH) = O=C([C@H](C[C@@H](O)[C@@H](O)N[*:3])N[*:1])[*:2]; Pro(3S-OH,4S-Me) = C[C@H]1CN[C@H](C(=O)O)[C@H]1O; X1 = CCCCCOc1ccc(-c2cc(-c3ccc(C(=O)*)cc3)no2)cc1; Gln(3R-OH) = NC(=O)C[C@@H](O)[C@H](N)C(=O)O; Hyp = O=C(O)[C@@H]1C[C@@H](O)CN1

Tested on: Human Hepatic Sinusoidal Endothelial Cells (HHSEC)
Assay: Oxygen and glucose deprivation followed by replenishment, cell survival (calcein AM), HHSEC
Assay type: cell-based
Description: Anidulafungin and micafungin were tested on Human Renal Glomerular Endothelial Cells (HRGEC, Innoprot P10665), on Human Renal Proximal Tubular Epithelial Cells (HRPTEpiC, Innoprot P10662), on Human Astrocytes (HA, caltag SC-1800), on Human Cardiac Microvascular Endothelial Cells (HCMEC, Caltag SC-6000), on Human Hepatic Sinusoidal Endothelial Cells (HHSEC, Caltag SC-5000), on Rat Primary Kidney Glomerular Endothelial cells (Cellbiologics, RN-6014G) and on Bovine Brain Microvascular Endothelial Cells (BBMEC, Caltag SC-B100).
In a first phase, these isolated, purified and cryopreserved cells are thawed and multiplied according to the supplier's recommendations in T75 or T175 flasks pre-coated with 2 μg of fibronectin/[…] (CORNING) for HRGEC, HCMEC, HHSEC and BBMEC, or 2 μg poly-L-lysin/cm^2 (Caltag SC-0403) for HRPTEpiC and HA, or 15 mL/flask 175 cm^2 gelatin-based solution (Cellbiologics) in the presence of endothelial cell supplemented growth medium ECM (P60104, INNOPROT, Caltag, SC-1001) for HRGEC, HCMEC, HHSEC, RPKGEC or BBMEC, or astrocyte cell supplemented growth medium AM (Caltag SC-1801) for HA or epithelial cell supplemented growth medium EpiCM (P60106, INNOPROT) for HRPTEpiC, at 37° C. under 5% CO2 and saturated humidity until their confluency. They are then harvested by trypsinization according to the method described by the supplier for exactly 5 minutes and then reseeded in new flasks a maximum of three times.
To carry out the oxygen and glucose deprivation test followed by their replenishment, the cells will be seeded in 96-well black plates with transparent flat bottom (GREINER). Once a sufficient number of cells has been obtained to allow seeding of 2000 to 15000 cells per well of 96-well plates depending on the cell type, the cells are seeded in these 96-well plates previously coated with an extracellular matrix as listed above for the flasks. The cells are cultured for 5 to 8 days according to the cell type, in the presence of the same growth medium as in the flask as described above except for HRGEC and HRPTEpiC for which DMEM (DUTSCHER) with 1 g/L of supplemented glucose is used, at 37° C. under 5% CO2 and saturated humidity to obtain confluency.
On the first day of oxygen and glucose deprivation, (5th, 6th, 7th or 8th day of culture), the culture conditions are drastically changed. The medium of all plates is removed and replaced by DMEM (DUTSCHER) medium without glucose and supplemented only with 1% penicillin-streptomycin (DUTSCHER). Anidulafungin or micafungin dissolved in dimethyl sulfoxide (DMSO) is then added to each well at the desired concentration, resulting in a maximum of 1% DMSO, and the plates are placed under hypoxia at <1% 02 and 5% CO2 at 37° C. for 24 hours of culture. Each compound was tested in a concentration range.
After 24 hours, the growth medium is changed and replaced by a richer medium, DMEM (DUTSCHER) at 1 g/L glucose and 2% FBS (INNOPROT) and 1% penicillin-streptomycin (DUTSCHER). These media will have been pre-equilibrated at 37° C. in advance. The cells are then returned to culture at 37° C. under 20% 02 and 5% CO2 for 22h.
After 22 hours of reoxygenation, the potential protective effect of anidulafungin or micafungin is measured by a cell viability test using calcein AM (CORNING), which is a dye substrate. The calcein AM can easily cross the cell membrane of the viable cells. The AM ester groups mask the part of the molecule that chelates calcium. Once inside the cells, the (non-fluorescent) calcein AM is hydrolyzed to (fluorescent) calcein by endogenous esterases. The resulting calcein molecule binds to calcium inside the cell and remains trapped inside the cell. These molecules emit strong green fluorescence when subjected to […] of a particular wavelength (495 nm). Since dead cells lack esterase activity, only living cells are labelled.
This cell viability test is performed in two steps. […]

[1] = [Micafungin] log μM 0 (first line printed 0, r12)
[2] = [Micafungin] log μM 0 (second line printed 0, r14)

Q: For `CCCCCOc1ccc(-c2cc(-c3ccc(C(=O)N[C@H]4C[C@@H](O)[C@@H](O)NC(=O)[C@@H]5[C@@H](O)[C@@H](C)CN5C(=O)[C@H]([C@H](O)CC(N)=O)NC(=O)[C@H]([C@H](O)[C@@H](O)c5ccc(O)c(OS(=O)(=O)O)c5)NC(=O)[C@@H]5C[C@@H](O)CN5C(=O)[C@H]([C@@H](C)O)NC4=O)cc3)no2)cc1` [Micafungin, {5-[(1S,2S)-2-[(3S,6S,9S,11R,15S,18S,20R,21R,24S,25S,26S)-3-[(1R)-2-carbamoyl-1-hydroxyethyl]-11,20,21,25-tetrahydroxy-15-[(1R)-1-hydroxyethyl]-26-methyl-2,5,8,14,17,23-hexaoxo-18-[(4-{5-[4-(pentyloxy)phenyl]-1,2-oxazol-3-yl}benzene)amido]-1,4,7,13,16,22-hexaazatricyclo[22.3.0.0]heptacosan-6-yl]-1,2-dihydroxyethyl]-2-hydroxyphenyl}oxidanesulfonic acid] (X1-[Orn(4R-OH,5R-OH)]T[Hyp][hTyr(3S-OH,4S-OH,3'-OSO3H)][Gln(3R-OH)][Pro(3S-OH,4S-Me)]; lactam 1-C), which “Globalfluo assay 1” value [1] is on record?
A: The value was 2600496 arbitrary units.

Q: What about the “Globalfluo assay 2” value [1] of the same compound?
A: Its value is 2592730 arbitrary units.

Q: And the “Globalfluo assay 3” value [1]?
A: Its value is 2666315 arbitrary units.

Q: What about the Mean globalfluo [1] of the same compound?
A: Its Mean globalfluo is 2619847 arbitrary units.

Q: What about the “Survival rate (%)” value [1] of the same compound?
A: The value was 0%.

Q: What about the “Globalfluo assay 1” value [2] of the same compound?
A: Its value is 3063920 arbitrary units.

Q: And the “Globalfluo assay 2” value [2]?
A: Its value is 2647280 arbitrary units.

Q: And the “Globalfluo assay 3” value [2]?
A: Its value is 2608353 arbitrary units.

Q: And the Mean globalfluo [2]?
A: The Mean globalfluo was 2773184 arbitrary units.

Q: And the “Survival rate (%)” value [2]?
A: Its value is 1%.

Q: And the “Globalfluo assay 1” value ([Micafungin] log μM 0.4771213)?
A: The value was 2619032 arbitrary units.

Q: And the “Globalfluo assay 2” value ([Micafungin] log μM 0.4771213)?
A: Its value is 2696453 arbitrary units.

Q: And the “Globalfluo assay 3” value ([Micafungin] log μM 0.4771213)?
A: The value was 2858592 arbitrary units.

Q: What about the Mean globalfluo ([Micafungin] log μM 0.4771213) of the same compound?
A: Its Mean globalfluo is 2724692 arbitrary units.

Q: And the “Survival rate (%)” value ([Micafungin] log μM 0.4771213)?
A: The value was 1%.

Q: And the “Globalfluo assay 1” value ([Micafungin] log μM 0.7781513)?
A: Its value is 2942319 arbitrary units.

Q: And the “Globalfluo assay 2” value ([Micafungin] log μM 0.7781513)?
A: Its value is 3052699 arbitrary units.

Q: What about the “Globalfluo assay 3” value ([Micafungin] log μM 0.7781513) of the same compound?
A: Its value is 2975927 arbitrary units.

Q: What about the Mean globalfluo ([Micafungin] log μM 0.7781513) of the same compound?
A: Its Mean globalfluo is 2990315 arbitrary units.

Q: What about the “Survival rate (%)” value ([Micafungin] log μM 0.7781513) of the same compound?
A: The value was 2%.

Q: What about the “Globalfluo assay 1” value ([Micafungin] log μM 0.90309) of the same compound?
A: The value was 2800146 arbitrary units.

Q: What about the “Globalfluo assay 2” value ([Micafungin] log μM 0.90309) of the same compound?
A: Its value is 3162662 arbitrary units.

Q: And the “Globalfluo assay 3” value ([Micafungin] log μM 0.90309)?
A: The value was 3203256 arbitrary units.

Q: And the Mean globalfluo ([Micafungin] log μM 0.90309)?
A: Its Mean globalfluo is 3055355 arbitrary units.

Q: And the “Survival rate (%)” value ([Micafungin] log μM 0.90309)?
A: The value was 3%.

Q: What about the “Globalfluo assay 1” value ([Micafungin] log μM 1) of the same compound?
A: Its value is 3210890 arbitrary units.

Q: And the “Globalfluo assay 2” value ([Micafungin] log μM 1)?
A: The value was 3369543 arbitrary units.

Q: And the “Globalfluo assay 3” value ([Micafungin] log μM 1)?
A: Its value is 2819931 arbitrary units.

Q: What about the Mean globalfluo ([Micafungin] log μM 1) of the same compound?
A: Its Mean globalfluo is 3133455 arbitrary units.

Q: And the “Survival rate (%)” value ([Micafungin] log μM 1)?
A: Its value is 3%.

Q: What about the “Globalfluo assay 1” value ([Micafungin] log μM 1.079181) of the same compound?
A: The value was 3383806 arbitrary units.

Q: What about the “Globalfluo assay 2” value ([Micafungin] log μM 1.079181) of the same compound?
A: The value was 3457745 arbitrary units.

Q: And the “Globalfluo assay 3” value ([Micafungin] log μM 1.079181)?
A: Its value is 3493598 arbitrary units.

Q: What about the Mean globalfluo ([Micafungin] log μM 1.079181) of the same compound?
A: The Mean globalfluo was 3445050 arbitrary units.

Q: What about the “Survival rate (%)” value ([Micafungin] log μM 1.079181) of the same compound?
A: Its value is 5%.

Q: And the “Globalfluo assay 1” value ([Micafungin] log μM 1.176091)?
A: The value was 3454603 arbitrary units.

Q: What about the “Globalfluo assay 2” value ([Micafungin] log μM 1.176091) of the same compound?
A: The value was 3676802 arbitrary units.

Q: And the “Globalfluo assay 3” value ([Micafungin] log μM 1.176091)?
A: Its value is 3618017 arbitrary units.

Q: What about the Mean globalfluo ([Micafungin] log μM 1.176091) of the same compound?
A: The Mean globalfluo was 3583141 arbitrary units.

Q: And the “Survival rate (%)” value ([Micafungin] log μM 1.176091)?
A: Its value is 6%.

Q: And the “Globalfluo assay 1” value ([Micafungin] log μM 1.30103)?
A: The value was 3383992 arbitrary units.

Q: And the “Globalfluo assay 2” value ([Micafungin] log μM 1.30103)?
A: The value was 2974781 arbitrary units.

Q: And the “Globalfluo assay 3” value ([Micafungin] log μM 1.30103)?
A: The value was 3188414 arbitrary units.

Q: What about the Mean globalfluo ([Micafungin] log μM 1.30103) of the same compound?
A: The Mean globalfluo was 3182396 arbitrary units.

Q: And the “Survival rate (%)” value ([Micafungin] log μM 1.30103)?
A: The value was 3%.

Q: And the “Globalfluo assay 1” value ([Micafungin] log μM −2)?
A: Its value is 2651037 arbitrary units.

Q: And the “Globalfluo assay 2” value ([Micafungin] log μM −2)?
A: Its value is 2880244 arbitrary units.

Q: What about the “Globalfluo assay 3” value ([Micafungin] log μM −2) of the same compound?
A: Its value is 2908835 arbitrary units.

Q: What about the Mean globalfluo ([Micafungin] log μM −2) of the same compound?
A: Its Mean globalfluo is 2813372 arbitrary units.

Q: What about the “Survival rate (%)” value ([Micafungin] log μM −2) of the same compound?
A: The value was 1%.
